Experimental data as given in US20190183952A1, “METHODS FOR PREPARING ACTIVE EXTRACT AND APPLICATION THEREOF” (BEIJING BOXIN NATURE BIOTECH LTD., priority 2016, published 2019).

Experiments:
[1] = test system: androgen-sensitive human prostate cancer cell line, LNCaP; assay: XTT cell proliferation assay, LNCaP; assay type: cell-based
Description: (§1) Cell Proliferation Assays (FIGS. 7, 8, 16, and 17):
(§2) Human androgen-sensitive prostate cancer cell line, LNCaP, and androgen-insensitive prostate cancer cell line, PC-3 were cultured in RPMI-1640 medium supplemented with 2 mM L-glutamine and 10% fetal bovine serum (FBS). For proliferation assays LNCaP and PC-3 cells were seeded at 15,000 cells/well density in 24-well plates with complete medium (with 10% FBS). Cells were let to attach for 20 h and then, the culture medium was exchanged for fresh serum-free medium containing the respective treatments (androgens and test compounds). Viable cells content in each well was determined 72 h afterwards.
(§3) Proliferation was determined by the XTT cell viability assay (Cell Proliferation Kit II (XTT), Sigma-Aldrich, St. Louis, Mo., USA). This is a colorimetric assay that analyzes the number of viable cells by the cleavage of tetrazolium salts added to the culture medium. The cleavage product of tetrazolium salt XTT, in contrast to MTT, is soluble in water. The tetrazolium salt XTT is cleaved to formazan by a complex cellular mechanism. This bioreduction occurs in viable cells only. […] After this incubation period, the amount of formazan dye formed was quantitated using a plate reader. The measured absorbance at 490 nm directly correlates to the number of viable cells.

[2] = test system: androgen-independent human prostate cancer cell line, PC-3; assay: XTT cell proliferation assay, PC-3; assay type: cell-based; settings: lycopene 0.1 and 0.25 mg/ml
Description: as §1, §2, §3

[3] = test system: human bladder neck strips from patients with BPH/LUTS; assay: Organ bath, norepinephrine-contracted human bladder neck strips
Description: (§4) Organ Bath Experiments with Human Prostate and Bladder Tissues (FIGS. 10, 12, 19, and 20):
(§5) Specimens of human prostate and bladder neck were obtained from patients undergoing suprapubic adenomectomy (Millin's approach) for benign prostatic hyperplasia (BPH). […]
(§6) Human prostate and bladder neck specimens were cleaned of fat and connective tissue and cut into strips for organ bath assays. […] Tissues were subsequently exposed to 125 mM K^+ (equimolar substitution of […] in KHS) and contractile response was measured to check functionality. The relaxant effect induced by increasing doses of the NtB extract or the vehicle (distilled water) was evaluated in human prostate and bladder neck strips precontracted with 3-10 μM norepinephrine (NE) (80% of K^+-induced contraction, approximately) (FIG. 10). Relaxations of human prostate and bladder neck induced by PDES inhibition were evaluated by adding increasing concentrations of tadalafil (1 nM to 100 μM) on strips precontracted with NE and previously treated with NtB (10 mg/ml) or vehicle (distilled water) (FIG. 12). […] Concentration-response (relaxation) curves to lycopene (0.025 to 0.5 mg/ml) were also determined after NE-induced contraction in human bladder neck (FIG. 20A).

[4] = test system: human prostate strips from patients with BPH/LUTS; assay: Organ bath, norepinephrine-contracted human prostate strips
Description: as §4, §5, §6

[5] = test system: prostatic specific antigen (PSA) production by LNCaP; assay: Androgen-stimulated PSA production (ELISA) in LNCaP cells; assay type: cell-based, human; settings: testosterone or dihydrotestosterone (40 nM), 24 h; lycopene 0.1 and 0.25 mg/ml
Description: Prostatic-Specific Antigen (PSA) Determinations (FIGS. 9 and 18):
For this purpose, LNCaP cells were seeded at 25,000 cells/well in 24-well plates and let to grow in complete medium (10% FBS) at 80% confluence, approximately, that is typically achieved after 48 h. The culture medium was then exchanged for fresh serum-free medium containing the respective treatments (androgens and/or NtB and/or lycopene). Conditioned media was collected 24 h afterwards and PSA concentrations were determined by using a colorimetric ELISA kit following manufacturer's instructions (Ray Biotech, Norcross, Ga., USA).

## CC(C)=CCC/C(C)=C/C=C/C(C)=C/C=C/C(C)=C/C=C/C=C(C)/C=C/C=C(C)/C=C/C=C(\C)CCC=C(C)C [lycopene]
[1]; lycopene 0.25 mg/ml, T or DHT 40 nM
  testosterone- or dihydrotestosterone-induced increase in proliferation of LNCaP cells: effectively reversed
[1]; lycopene 0.1 and 0.25 mg/ml
  proliferation of LNCaP cells in the absence of androgen stimulation: did not significantly influence proliferation
[2]
  proliferation of PC-3 cells in the absence of androgen stimulation: did not significantly influence proliferation
[2]; T or DHT 40 nM
  proliferation of PC-3 cells in the presence of T or DHT: failed to significantly reduce proliferation
[3]
  relaxation (reversion of NE-induced contraction) of human bladder neck strips: could have relaxant activity by itself
[4]
  relaxation (reversion of NE-induced contraction) of human prostate strips: could have relaxant activity by itself
[5]
  androgen-stimulated PSA production in LNCaP cells: prevented
